# Like-named read-outs stand apart in the source and are kept apart here.
# Legend:
# [1] = system: Caenorhabditis elegans AU37; test: Roundworm (C. elegans) survival assay; type: in vivo; details: for Survival rate: 48 h
# Experimental: Nematode roundworms (Caenorhabditis elegans AU37) were obtained from the Caenorhabditis Genetics Center (CGC), University of Minnesota, Minneapolis, Minnesota, US. C. elegans AU37 (glp-4; sek-1) was propagated under standard conditions, synchronized by hypochlorite bleaching, and cultured on nematode growth medium using E. coli OP50 as a food source, as described previously. The C. elegans survival assay was carried out following the standard procedure with some modifications. Briefly, synchronized worms (L4 stage) were suspended in a medium containing 95% M9 buffer (3.0 g of KH2PO4, 6.0 g of Na2HPO4, 5.0 g of NaCl, and 1 mL of 1 M MgSO4∙7H2O in 1 L of water), 5% LB broth, and 10 μg/mL of cholesterol (Sigma-Aldrich, Munich, Germany). The experiment was carried out in 96-well flat-bottomed microtiter plates (Sarstedt, Nümbrecht, Germany) in the final volume of 100 μL per well. 25 μL of this suspension of nematodes (25–35 nematodes) were transferred to the wells of a 96-well microtiter plate, where 50 μL of the medium was previously added. Next, 25 μL of the solvent control (1% DMSO) or 25 μL of the concentrated tested compound solution was added to the test wells. Final concentrations of the compounds were 50.00, 25.00, 12.50, 6.25, 3.13, and 1.57 µg/mL. Subsequently, the plates were incubated at 25 °C for 2 days. The fraction of dead worms was determined after 48 h by counting the number of dead worms and the total number of worms in each well, using a Carl Zeiss™ Stemi 508 Stereomicroscope (Zeiss Group, Jena, Germany) at 40× magnification. The compounds were tested three times in each assay and each assay was repeated two times (n = 6). As a negative control experiment, nematodes were exposed to the medium containing 1% DMSO.
# [2] = system: MRC-5 cells; test: Annexin V flow cytometry, early apoptosis; type: cell-based; details: MRC-5, compound at IC50 concentration, 24 h
# Experimental: The eBioscience^TM Annexin V Apoptosis Detection Kit APC (Invitrogen by Thermo Fischer Scientific, Waltham, MA, USA) was used for the assessment of cellular integrity and the externalization of phosphatidylserine. MRC-5 cells were plated in a 6-well flat-bottom plate at a concentration of 2.5 × 10^5 cells per well, grown for 24 h in a humidified atmosphere of 95% air and 5% CO2 at 37 °C in RPMI 1640 medium supplemented with 10% fetal bovine serum (FBS), 100 U/mL penicillin, and 100 μg/mL streptomycin (Gibco™ by Thermo Fischer Scientific CE, Waltham, MA, USA). Each tested compound was added to the cells at IC50 concentration, and the incubation continued for another 24 h under the same conditions. Upon incubation, cells were collected, washed once with Dulbecco’s Phosphate-Buffered Saline (Gibco™ by Thermo Fischer Scientific CE, Waltham, MA, USA), and stained with Annexin V FITC and propidium iodide (PI) under the manufacturer’s instructions. Briefly, MRC-5 cells were resuspended in 1 × Binding Buffer at 1–5 × 10^6 cells per mL and incubated with 5.00 µL Annexin V FITC for 15 min at room temperature in a final volume of 100 μL. […] Immediately after staining, cells were analyzed using a CyFlow Space Partec flow cytometer, with Partec FloMax software (Partec GmbH, Münster, Germany).
# [3] = system: HCT116 (colon cancer); test: MTT antiproliferative assay on HCT116 cells; type: cell-based; details: Homo sapiens, HCT-116, read-out: IC50
# Experimental: (§1) Selected cell lines MRC-5 (lung fibroblasts), A549 (lung cancer), A375 (melanoma, skin cancer), MDA-MB-231 (breast cancer), and HCT116 (colon cancer) were obtained from ATCC, Manassas, US. Antiproliferative activities of PG and its Br derivatives were measured using the standard colorimetric MTT [3-(4,5-dimethylthiazol-2-yl)-2,5-diphenyltetrazolium bromide] assay. Briefly, cells were plated in a 96-well flat-bottom plate (Sarstedt, Nümbrecht, Germany) at a concentration of 1 × 10^4 cells per well, grown in a humidified atmosphere of 95% air and 5% CO2 at 37 °C, and maintained as monolayer cultures in RPMI 1640 medium supplemented with 10% fetal bovine serum (FBS), 100 U/mL penicillin, and 100 μg/mL streptomycin (all media components from Gibco™ by Thermo Fischer Scientific CE). Each tested compound was added to the cells at a concentration of 0.05–100.00 μg/mL, and the treatment lasted for 48 h. The MTT assay was performed two times in four replicates, and the results were presented as a percentage of the DMSO-treated control that was arbitrarily set to 100%. Plates were read using the Tecan Infinite 200 Pro multiplate reader (Tecan Group Ltd., Männendorf, Switzerland).
# (§2) To assess the effect of the treatment duration, exposure of MRC-5 and HCT116 cells to PG and its Br derivatives was observed after 24 h, 48 h, and 72 h and measured using the MTT assay, as described above. MRC-5 and HCT-116 cells treated for 24 h were additionally analyzed using DM IL LED Inverted Microscope (Leica Microsystems, Mannheim, Germany) at 20× magnification.
# [4] = system: MRC-5 (lung fibroblasts); test: MTT antiproliferative assay on MRC-5 cells; type: cell-based; details: Homo sapiens, MRC5, read-out: IC50
# Experimental: as §1, §2
# [5] = system: A549, A375, MDA-MB-231, and HCT116 cancer cell lines; test: MTT assay, whole cell line panel; type: cell-based; details: human, 48 h
# Experimental: as §1
# [6] = system: A375 (melanoma, skin cancer); test: MTT antiproliferative assay on A375 cells; type: cell-based; details: Homo sapiens, A-375; A375, 48 h treatment; read-out: IC50
# Experimental: as §1
# [7] = system: zebrafish (Danio rerio) embryos; test: Zebrafish (D. rerio) embryotoxicity; type: in vivo
# Experimental: Wild-type zebrafish (Danio rerio) strain was obtained from the commercial supplier Pet Center, Belgrade, Serbia. Zebrafish embryotoxicity assay was performed according to general rules of the OECD Guidelines for the testing of chemicals. The wild-type zebrafish (D. rerio) strain was kept under controlled environmental conditions (water temperature 28 °C, 14 h under the light and 10 h in the dark) and fed regularly three times a day with commercially dry flake food supplemented with Artemia nauplii (TetraMinTM flakes; Tetra Melle, Germany). Zebrafish embryos were produced by female and male adults mating in the ratio of 1:2. Obtained embryos were collected and washed from detritus and carefully handled. Only fertilized embryos were selected and distributed into 24-well plates (Sarstedt, Germany) containing 10 embryos per well. Each well contained exactly 1 mL of water for embryos (0.2 g/L of Instant Ocean® Salt in distilled water). For assessing lethal and developmental toxicity, embryos at the 6 and 20 h postfertilization (hpf) stages were treated with selected compounds at concentrations of 0.1–100 μg/mL (maximum DMSO concentration in the negative control was 1%) and incubated at 28 °C. Experiments were performed in triplicate, using 30 embryos for each concentration. For five days, the appearance of different morphophysiological parameters in embryo development was monitored, and dead embryos were counted and discarded every 24 h. On the fifth day, the embryos were anesthetized by the addition of 0.1% (w/v) tricaine solution (Sigma-Aldrich, St. Louis, Missouri, US), observed under a stereomicroscope (SMZ-143-N2GG, Motic, Germany) at 3.5× magnification, photographed, and killed by freezing at −20 °C for ≥24 h. All experiments involving zebrafish were performed in compliance with the European directive 2010/63/EU and the ethical guidelines of the Guide for Care and Use of Laboratory Animals of the Institute of Molecular Genetics and Genetic Engineering, University of Belgrade, Serbia.
# [8] = system: A549 (lung cancer); test: MTT antiproliferative assay on A549 cells; type: cell-based; details: Homo sapiens; A549, 48 h treatment; read-out: IC50
# Experimental: as §1
# [9] = system: MDA-MB-231 (breast cancer); test: MTT antiproliferative assay on MDA-MB-231 cells; type: cell-based; details: Homo sapiens; MDA-MB-231, 48 h treatment; read-out: IC50
# Experimental: as §1
# [10] = system: breast cancer cell lines; set-up: method as in printed; details: breast cancer cells, 72 h exposure; literature, ref not given; cited from earlier work
# [11] = system: WI-38-40 (fibroblasts); set-up: method as in printed; details: WI-38-40, 72 h exposure; literature, ref not given; cited from earlier work
# [12] = system: HBL-100 (breast epithelial cells); set-up: method as in printed; details: HBL-100, 72 h exposure; literature, ref not given; cited from earlier work
compound,measurement,setting,value
CCCCCC1=C(Br)/C(=C/c2[nH]c(-c3[nH]ccc3Br)cc2OC)N=C1C [PG-Br2],Survival rate,[1]; 1.57 µg/mL,100 ± 0.00%
same,Survival rate,[1]; 3.13 µg/mL,100 ± 0.00%
same,Survival rate,[1]; 6.25 µg/mL,100 ± 0.00%
same,Survival rate,[1]; 12.50 µg/mL,100 ± 0.00%
same,Survival rate,[1]; 25.00 µg/mL,100 ± 0.00%
same,Survival rate,[1]; 50.00 µg/mL,100 ± 0.00%
same,motility of nematodes,[1]; all tested concentrations,significantly impaired
same,Annexin V Positive Cells,[2],19.6 ± 0.6%
same,IC50,"[3]; HCT116, 48 h treatment",10 ± 0.08 µg/mL
same,IC50,"[3]; HCT116, exposure time 24 h",50 ± 0.09 µg/mL
same,IC50,"[3]; HCT116, exposure time 72 h",10 ± 0.05 µg/mL
same,IC50,"[4]; MRC-5, 48 h treatment",10 ± 0.09 µg/mL
same,IC50,"[4]; MRC-5, exposure time 24 h",15 ± 0.05 µg/mL
same,IC50,"[4]; MRC-5, exposure time 72 h",10 ± 0.08 µg/mL
same,lower cytotoxicity in comparison to PG,[5],8-27 fold
same,IC50,[6],12 ± 0.04 µg/mL
same,death rate,[7]; 10 µg/mL applied at 6 hpf,0%
same,embryos survival rate,"[7]; 20 µg/mL, 6 hpf and 20 hpf",100%
same,teratogenic effects,"[7]; 20 µg/mL, 6 hpf and 20 hpf",without any teratogenic effects
same,effect on embryos,"[7]; 50–70 µg/mL, application at 6 hpf",severe toxicity and abnormal development
same,IC50,[8],16 ± 0.08 µg/mL
same,IC50,[9],17 ± 0.05 µg/mL
cycloprodigiosin [cPG],IC50,[10],0.15 to 0.20 µg/mL
same,dose for growth inhibition,[11],0.73 µg/mL
same,dose for growth inhibition,[12],0.57 µg/mL

# Source: article PMC9227013, “Synthesis, Anticancer Potential and Comprehensive Toxicity Studies of Novel Brominated Derivatives of Bacterial Biopigment Prodigiosin from Serratia marcescens ATCC 27117” (Molecules, 2022)
